Like-named read-outs stand apart in the source and are kept apart here.
Columns and labels:
[1] = target: T1, Ros1 enzyme (Homo sapiens, UniProt P08922); test: Ros1 enzymatic assay; format: biochemical
T1 construct: 0.5 μg/ml Ros1 enzyme
Summary of the method: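 A radiometric assay mixed enzyme mix (0.5 μg/ml human Ros1) with substrate mix (6 μg/ml biotinylated IRS-Tide, 20 μM ATP plus [33P]ATP), both in 50 mM Tris-HCl pH 7.5, 10 mM MgCl2, 1 mM EGTA, 0.01% Tween-20. The reaction ran 120 min at room temperature, was stopped with EDTA plus streptavidin imaging beads, and was read by LEADseeker imaging.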

[2] = target: T2, Ba/F3 cells containing Ros1 wild-type protein (Homo sapiens, UniProt P08922, cells depend on it, form not given); test: Ba/F3-Ros1 cell proliferation assay, wild-type Ros1; format: cell-based, murine; details: without IL-3
T2 construct: The background only speaks of 'a number of different unrelated proteins' and names SLC34A2-ROS1 for HCC78 cells
T2 sequence (P08922 whole entry, stated change not applied): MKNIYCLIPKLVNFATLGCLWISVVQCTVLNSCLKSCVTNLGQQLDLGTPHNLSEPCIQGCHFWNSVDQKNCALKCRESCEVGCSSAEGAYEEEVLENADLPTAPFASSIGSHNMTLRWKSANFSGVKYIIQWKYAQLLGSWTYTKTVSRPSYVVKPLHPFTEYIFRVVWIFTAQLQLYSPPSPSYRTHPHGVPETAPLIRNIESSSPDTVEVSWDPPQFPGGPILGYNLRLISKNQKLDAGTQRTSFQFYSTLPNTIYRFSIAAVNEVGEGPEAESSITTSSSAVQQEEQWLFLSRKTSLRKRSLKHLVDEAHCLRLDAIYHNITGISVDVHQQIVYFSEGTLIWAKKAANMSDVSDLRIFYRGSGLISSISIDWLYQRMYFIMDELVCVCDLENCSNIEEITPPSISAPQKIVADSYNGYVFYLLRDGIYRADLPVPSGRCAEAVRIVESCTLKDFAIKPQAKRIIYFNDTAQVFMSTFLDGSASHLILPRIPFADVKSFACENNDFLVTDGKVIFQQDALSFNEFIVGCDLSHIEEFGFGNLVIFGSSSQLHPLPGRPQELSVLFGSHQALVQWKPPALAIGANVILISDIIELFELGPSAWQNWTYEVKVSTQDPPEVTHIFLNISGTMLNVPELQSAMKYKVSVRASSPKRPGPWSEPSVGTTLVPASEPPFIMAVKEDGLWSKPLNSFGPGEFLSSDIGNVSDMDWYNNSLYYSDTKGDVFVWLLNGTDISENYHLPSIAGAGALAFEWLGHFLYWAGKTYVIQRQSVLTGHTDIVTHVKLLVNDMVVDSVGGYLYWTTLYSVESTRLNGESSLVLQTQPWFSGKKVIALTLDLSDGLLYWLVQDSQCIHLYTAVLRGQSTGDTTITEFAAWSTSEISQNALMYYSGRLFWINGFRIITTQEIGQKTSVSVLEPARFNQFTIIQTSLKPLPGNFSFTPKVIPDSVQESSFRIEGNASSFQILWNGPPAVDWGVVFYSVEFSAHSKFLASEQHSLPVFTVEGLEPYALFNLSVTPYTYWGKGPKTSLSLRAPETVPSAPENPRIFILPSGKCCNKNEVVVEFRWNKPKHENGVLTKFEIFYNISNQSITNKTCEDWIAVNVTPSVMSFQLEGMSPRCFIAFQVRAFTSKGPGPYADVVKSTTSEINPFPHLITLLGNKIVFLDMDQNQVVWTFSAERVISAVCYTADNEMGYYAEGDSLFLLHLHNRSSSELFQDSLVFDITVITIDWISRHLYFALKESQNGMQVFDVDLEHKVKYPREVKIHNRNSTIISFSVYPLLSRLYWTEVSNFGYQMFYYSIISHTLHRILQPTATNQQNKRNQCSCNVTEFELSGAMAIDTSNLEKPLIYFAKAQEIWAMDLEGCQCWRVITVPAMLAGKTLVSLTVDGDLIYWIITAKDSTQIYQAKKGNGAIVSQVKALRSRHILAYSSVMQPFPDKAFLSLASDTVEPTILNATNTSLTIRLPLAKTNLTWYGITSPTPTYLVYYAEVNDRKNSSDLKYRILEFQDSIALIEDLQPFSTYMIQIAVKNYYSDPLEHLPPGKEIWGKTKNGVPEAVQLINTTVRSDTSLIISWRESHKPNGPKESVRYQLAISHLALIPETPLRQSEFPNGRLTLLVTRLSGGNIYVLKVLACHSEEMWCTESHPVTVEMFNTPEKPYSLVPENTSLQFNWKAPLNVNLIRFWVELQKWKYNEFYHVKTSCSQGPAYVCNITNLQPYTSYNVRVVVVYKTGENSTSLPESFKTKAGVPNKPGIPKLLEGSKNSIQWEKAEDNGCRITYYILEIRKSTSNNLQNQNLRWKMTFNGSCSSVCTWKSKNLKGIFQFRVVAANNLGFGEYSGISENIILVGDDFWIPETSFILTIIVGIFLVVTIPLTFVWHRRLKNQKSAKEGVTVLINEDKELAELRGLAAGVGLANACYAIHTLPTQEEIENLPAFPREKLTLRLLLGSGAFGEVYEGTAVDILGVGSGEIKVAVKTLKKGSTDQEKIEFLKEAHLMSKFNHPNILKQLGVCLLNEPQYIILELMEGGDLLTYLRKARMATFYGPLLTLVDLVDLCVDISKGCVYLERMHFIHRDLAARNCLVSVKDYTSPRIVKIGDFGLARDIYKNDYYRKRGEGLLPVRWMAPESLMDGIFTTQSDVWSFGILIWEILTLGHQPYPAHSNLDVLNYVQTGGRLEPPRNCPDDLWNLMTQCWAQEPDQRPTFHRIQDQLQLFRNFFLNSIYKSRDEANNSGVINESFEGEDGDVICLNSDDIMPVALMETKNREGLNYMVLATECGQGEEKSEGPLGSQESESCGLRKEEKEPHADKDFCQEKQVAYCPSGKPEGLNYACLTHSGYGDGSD
Summary of the method: (§1)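 Alamar Blue read-out (resazurin, ex. 540 nm, em. 590 nm, 4 h at 37 °C) after 24 h compound exposure of 20000 Ba/F3-Ros1 cells per well. Cells carry WT, gatekeeper L2026M or crizotinib-resistant G2032R Ros1; medium RPMI-1640, 10% FBS, 2 mM L-Glutamine.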

[3] = target: Ba/F3 cells containing Ros1 with a mutation at the gatekeeper residue (L2026M) (Homo sapiens, UniProt P08922, L2026M, cells depend on it, form not given); test: Ba/F3-Ros1 cell proliferation assay, L2026M gatekeeper mutant; format: cell-based, murine; details: without IL-3
Sequence of Ba/F3 cells containing Ros1 with a mutation at the gatekeeper residue (L2026M) (P08922 whole entry L2026M, form open): as the sequence (P08922 whole entry, stated change not applied) above, with L2026M counted along it
Summary of the method: as §1

[4] = test system: Ba/F3 cells containing Ros1 wild-type protein + IL-3; test: Ba/F3-Ros1 cell proliferation counter-screen, wild-type protein in the presence of 10 ng/ml murine IL-3; format: cell-based; details: Mus musculus, BaF3, 24 h, read-out: BaF3-ROS1 + IL3 pIC50 (converted)
Summary of the method: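 Ba/F3 cells expressing wild-type Ros1, 20000 per well in RPMI-1640 with 10% FBS, cultured with compounds for 24 h at 37 °C with 10 ng/ml murine IL-3. Alamar Blue (resazurin) then added for 4 h. Fluorescence read at ex 540/em 590 nm.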

[5] = test system: HCC78 non-small cell lung cancer cells; test: HCC78 cell proliferation assay; format: cell-based; details: for EC50: Homo sapiens, HCC78, 96 h, read-out: HCC-78 PROL pEC50 (converted)
Summary of the method: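 HCC78 NSCLC cells (~1000/well) in RPMI-1640 with 10% FBS were treated 24 h after seeding and exposed to compound for 4 days at 37 °C. Viability was read by MTT, with absorbance at 538 nm after DMSO/glycine solubilization.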

[6] = Ros1 enzymatic assay, read-out: ROS1 pIC50 (converted)
[7] = counter-screen, wild-type, 10 ng/ml murine IL-3

T1 sequence (P08922 28-2347): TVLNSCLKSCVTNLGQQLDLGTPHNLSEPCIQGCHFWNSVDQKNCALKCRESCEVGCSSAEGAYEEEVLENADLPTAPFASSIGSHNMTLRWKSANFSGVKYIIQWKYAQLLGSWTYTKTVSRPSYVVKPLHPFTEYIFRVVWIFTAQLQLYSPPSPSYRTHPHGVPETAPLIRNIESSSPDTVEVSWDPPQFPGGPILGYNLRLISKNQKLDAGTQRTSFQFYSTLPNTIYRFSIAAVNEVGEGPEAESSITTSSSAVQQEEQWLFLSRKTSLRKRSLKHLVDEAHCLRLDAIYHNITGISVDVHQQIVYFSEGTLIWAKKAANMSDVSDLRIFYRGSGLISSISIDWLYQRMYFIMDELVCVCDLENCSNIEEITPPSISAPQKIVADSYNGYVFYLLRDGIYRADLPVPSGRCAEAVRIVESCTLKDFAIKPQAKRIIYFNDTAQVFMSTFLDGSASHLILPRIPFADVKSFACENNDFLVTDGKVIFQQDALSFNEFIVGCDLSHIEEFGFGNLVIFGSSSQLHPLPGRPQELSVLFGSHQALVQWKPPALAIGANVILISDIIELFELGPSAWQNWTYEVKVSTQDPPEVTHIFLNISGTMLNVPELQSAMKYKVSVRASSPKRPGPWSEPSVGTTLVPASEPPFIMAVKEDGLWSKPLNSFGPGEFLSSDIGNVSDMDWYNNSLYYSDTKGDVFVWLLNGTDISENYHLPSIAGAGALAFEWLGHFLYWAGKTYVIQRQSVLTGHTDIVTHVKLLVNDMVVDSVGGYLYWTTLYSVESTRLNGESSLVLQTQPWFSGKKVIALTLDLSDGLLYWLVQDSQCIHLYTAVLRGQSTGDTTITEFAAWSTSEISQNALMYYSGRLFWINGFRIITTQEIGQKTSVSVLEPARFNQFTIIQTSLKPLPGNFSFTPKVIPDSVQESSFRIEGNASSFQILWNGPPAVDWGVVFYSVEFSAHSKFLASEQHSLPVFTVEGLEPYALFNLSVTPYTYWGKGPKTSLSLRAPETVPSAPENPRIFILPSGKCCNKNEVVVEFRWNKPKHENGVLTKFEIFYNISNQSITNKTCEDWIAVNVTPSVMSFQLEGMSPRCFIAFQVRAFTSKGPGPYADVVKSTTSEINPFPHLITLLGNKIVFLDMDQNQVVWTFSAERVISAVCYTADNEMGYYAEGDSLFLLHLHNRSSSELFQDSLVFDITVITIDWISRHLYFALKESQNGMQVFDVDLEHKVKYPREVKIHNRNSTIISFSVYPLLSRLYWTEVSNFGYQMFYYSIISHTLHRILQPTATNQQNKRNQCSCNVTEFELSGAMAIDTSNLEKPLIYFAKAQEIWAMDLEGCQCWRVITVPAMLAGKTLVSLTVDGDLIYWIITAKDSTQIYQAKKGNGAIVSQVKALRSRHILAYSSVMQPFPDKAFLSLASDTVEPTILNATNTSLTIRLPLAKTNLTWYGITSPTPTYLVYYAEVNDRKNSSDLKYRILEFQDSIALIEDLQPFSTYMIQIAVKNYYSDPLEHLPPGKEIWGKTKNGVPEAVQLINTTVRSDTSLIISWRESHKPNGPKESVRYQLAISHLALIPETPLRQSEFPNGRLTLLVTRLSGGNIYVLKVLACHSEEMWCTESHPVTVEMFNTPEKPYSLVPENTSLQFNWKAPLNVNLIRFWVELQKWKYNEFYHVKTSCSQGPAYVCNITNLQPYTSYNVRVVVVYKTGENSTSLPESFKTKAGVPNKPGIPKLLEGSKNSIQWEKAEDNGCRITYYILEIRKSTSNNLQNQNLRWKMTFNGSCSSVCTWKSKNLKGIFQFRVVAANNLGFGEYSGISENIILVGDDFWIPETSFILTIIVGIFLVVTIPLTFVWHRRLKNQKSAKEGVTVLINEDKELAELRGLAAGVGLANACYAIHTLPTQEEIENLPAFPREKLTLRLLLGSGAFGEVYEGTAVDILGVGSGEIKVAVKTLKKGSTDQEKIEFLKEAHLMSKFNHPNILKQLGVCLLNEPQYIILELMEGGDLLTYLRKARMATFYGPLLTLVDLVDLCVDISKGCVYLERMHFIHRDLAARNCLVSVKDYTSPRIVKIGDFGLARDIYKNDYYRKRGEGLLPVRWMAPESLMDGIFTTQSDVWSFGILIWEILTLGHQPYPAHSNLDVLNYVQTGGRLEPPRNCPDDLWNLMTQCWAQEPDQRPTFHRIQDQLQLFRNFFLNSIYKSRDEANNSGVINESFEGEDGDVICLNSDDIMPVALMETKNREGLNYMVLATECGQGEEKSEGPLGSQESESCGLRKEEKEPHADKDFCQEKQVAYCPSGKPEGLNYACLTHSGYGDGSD

HCC-78 PROL pEC50 ([5]; HCC78 cells, 4 days, MTT) | EC50 ([5]; HCC78 cells, 4 days, MTT) | SMILES | IC50 [1, 6] | BaF3-ROS1-IL3 pIC50 [2] | Ba/F3 Ros1 L2026M (-IL-3) pIC50 [3] | CC50 [4, 7] | melting point | CC50 [4] | EC50 [5] | IC50 ([1]; ROS1 pIC50, Ros1 enzymatic assay)
6.5 | – | CC(C)c1cc(F)c(COc2ccc(-c3c(-c4ccncc4)nn4c3C(=O)N(CC(O)CO)CC4)cc2)cc1F (stereo not drawn) [Compound 98] | 251 nM | 6.8 | 6.6 | > 10000 nM | 184 °C | – | – | –
– | – | O=C1c2c(-c3ccc(OCc4ccc(C5CC5)cc4F)cc3)c(-c3ccncc3)nn2CCN1CCO [Compound 136] | 63.1 nM | 7.1 | 6.6 | – | 183 °C | > 10000 nM | 316 nM | –
– | – | CCOP(=O)(CCN1CCn2nc(-c3ccncc3)c(-c3ccc(OCc4ccc(C(C)C)cc4)cc3)c2C1=O)OCC [Compound 68] | – | 6.7 | 6.5 | – | 90 °C | 2510 nM | 2510 nM | 316 nM
– | – | Cc1cc(-c2c(-c3ccncc3)nn3c2C(=O)NCC3)cc(C)c1OCc1ccc(C(C)C)cc1 [Compound 29] | > 10000 nM | <5 | <5 | – | 260 °C | > 10000 nM | > 10000 nM | –
– | – | COCCN1CCn2nc(-c3ccncc3)c(-c3ccc(OCc4ccc(C(C)C)cc4)cc3)c2C1=O [Compound 50] | 50.1 nM | 7.1 | 7.2 | – | 167 °C | > 10000 nM | 158 nM | –
– | – | O=C1c2c(-c3ccc(OCc4ccc(C5CC5)c(F)c4)cc3)c(-c3ccncc3)nn2CCN1CCO [Compound 137] | 126 nM | 6.8 | 6.4 | – | 185 °C | > 10000 nM | 398 nM | –
– | – | N#CC1(c2ccc(COc3ccc(-c4c(-c5ccncc5)nn5c4C(=O)NCC5)cc3)cc2)CC1 [Compound 123] | 39.8 nM | 7.4 | 7.1 | – | 260 °C | > 10000 nM | 398 nM | –
– | – | CC(C)c1ccc(COc2ccc(-c3c(-c4ccncc4)nn4c3C(=O)N(CC3CCCO3)CC4)cc2)cc1 (stereo not drawn) [Compound 55] | 126 nM | 7.0 | 6.8 | – | 165 °C | > 10000 nM | 794 nM | –
– | 398 nM | CC(C)c1ccc(COc2ccc(-c3c(-c4ccncc4)nn4c3CN(CC(=O)N(C)C)CC4)cc2)cc1 [Compound 177] | 200 nM | 6.9 | 6.6 | > 10000 nM | 95 °C | – | – | –
5.0 | – | CC(C)c1ccc(C(C)Oc2ccc(-c3c(-c4ccncc4)nn4c3C(=O)N(CCO)CC4)cc2)cc1 (stereo not drawn) [Compound 144] | 1260 nM | 6.3 | 5.7 | > 10000 nM | 148 °C | – | – | –
– | 1260 nM | CC(C)c1ccc(COc2ccc(-c3c(-c4ccncc4)nn4c3C(=O)N(CC3COC(C)(C)O3)CC4)cc2)cc1 (stereo not drawn) [Compound 42] | 398 nM | 6.7 | 6.3 | > 10000 nM | 114 °C | – | – | –
– | – | CC(C)c1ccc(COc2ccc(-c3c(-c4ccncc4)nn4c3C(=O)N(CCO)CC4)cc2)cc1F [Compound 93] | 79.4 nM | 7.2 | 7.0 | – | 183 °C | > 10000 nM | 398 nM | –
– | – | COc1cc(-c2c(-c3ccncc3)nn3c2C(=O)N(CCO)CC3)cc(OC)c1OCc1ccc(C(C)C)cc1 [Compound 36] | 5010 nM | 5.8 | 5.7 | – | 176 °C | > 10000 nM | > 10000 nM | –
– | – | CC(C)c1ccc(COc2ccc(-c3c(-c4ccnc(CO)c4)nn4c3C(=O)NCC4)cc2)cc1 [Compound 233] | 794 nM | 6.5 | 5.9 | – | 232 °C | > 10000 nM | 2510 nM | –
– | – | CC(C)c1ccc(COc2ccc(-c3c(-c4ccncc4)nn4c3C(=O)NCC4)c(F)n2)cc1 [Compound 74] | 15.8 nM | 8.1 | 7.5 | – | 275 °C | > 10000 nM | 12.6 nM | –
– | – | CC(C)c1ccc(COc2ccc(-c3c(-c4ccncc4F)nn4c3C(=O)NCC4)c(F)c2)cc1 [Compound 152] | 10 nM | 8.0 | 8.1 | – | 262 °C | > 10000 nM | 63.1 nM | –
– | – | CC(C)c1ccc(COc2ccc(-c3c(-c4ccncc4)nn4c3C(=O)N(CCO)CC4)cc2)cn1 [Compound 81] | 63.1 nM | 7.3 | 6.5 | – | 93 °C | > 10000 nM | 158 nM | –
– | – | CC(C)c1ccc(COc2cc(F)c(-c3c(-c4ccncc4)nn4c3C(=O)NCC4)cn2)cc1 [Compound 73] | 15.8 nM | 7.9 | 7.4 | – | 207 °C | > 10000 nM | 126 nM | –
6.9 | – | CC(C)c1ccc(COc2ccc(-c3c(-c4ccncc4)nn4c3C(=O)N(CC(O)CO)CC4)cc2)cc1 (stereo not drawn) [Compound 43] | 50.1 nM | 7.4 | 7.3 | > 10000 nM | 190 °C | – | – | –
– | – | CC(C)c1cc(F)c(COc2ccc(-c3c(-c4ccncc4)nn4c3C(=O)N(CCO)CC4)cc2)c(F)c1 [Compound 94] | 100 nM | 7.0 | 6.6 | – | 194 °C | > 10000 nM | 398 nM | –
– | – | CC(C)c1ccc(COc2ccc(-c3c(-c4ccncc4C#N)nn4c3C(=O)NCC4)cc2)cc1 [Compound 153] | 39.8 nM | 7.5 | 6.8 | – | 225 °C | > 10000 nM | 316 nM | –
– | – | CC(C)(O)c1ccc(COc2ccc(-c3c(-c4ccncc4)nn4c3C(=O)N(CCO)CC4)cc2)cc1 [Compound 115] | 1260 nM | 6.3 | <5 | – | 193 °C | > 10000 nM | 1580 nM | –
– | – | O=C1c2c(-c3ccc(OCc4ccc(C5CC5)nc4)cc3)c(-c3ccncc3)nn2CCN1CCO [Compound 139] | 126 nM | 6.8 | 6.0 | – | 97 °C | > 10000 nM | 100 nM | –
– | 316 nM | CC(C)c1ccc(COc2ccc(-c3c(-c4ccncc4)nn4c3C(=O)NCC4)cc2)cc1C#N [Compound 85] | 39.8 nM | 7.4 | 7.1 | > 10000 nM | 240 °C | – | – | –
– | – | CCC(C)c1ccc(COc2ccc(-c3c(-c4ccncc4)nn4c3C(=O)N(CCO)CC4)cc2)cc1 (stereo not drawn) [Compound 107] | 20 nM | 7.7 | 7.4 | – | 163 °C | > 10000 nM | 79.4 nM | –
– | 79.4 nM | CC(C)c1ccc(COc2ccc(-c3c(-c4ccncc4)nn4c3CN(CCO)CC4)cc2)cc1 [Compound 176] | 158 nM | 6.9 | 7.1 | > 10000 nM | 150 °C | – | – | –
– | 501 nM | CC(C)c1ccc(C2CNc3cc(-c4c(-c5ccncc5)nn5c4C(=O)NCC5)ccc3O2)cc1 (racemic) [Compound 226] | 631 nM | 7.1 | 6.8 | > 10000 nM | 252 °C | – | – | –
